Laboratory results published in PubChem BioAssay (NCI).
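1) Cells in 96-well plates. 2) Compound, 48 h, 5 concentrations. 3) Linear interpolation between surrounding doses. 4) Unreached endpoint = highest concentration. GI50: concentration for 50% inhibition of growth. TGI marks complete inhibition of growth.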

Key:
Experiment in all cases: NCI-60 cell line screen, 48 h; in the data active = GI50 below about 0.43 µM; inactive = the rest
[1] = test system: 786-0 renal
[2] = test system: A498 renal
[3] = test system: A549 NSCLC
[4] = test system: ACHN renal
[5] = test system: BT-549 breast
[6] = test system: CAKI-1 renal
[7] = test system: CCRF-CEM leukemia
[8] = test system: COLO 205 colon
[9] = test system: DU-145 prostate
[10] = test system: EKVX NSCLC
[11] = test system: HCC-2998 colon
[12] = test system: HCT-116 colon
[13] = test system: HCT-15 colon
[14] = test system: HL-60(TB) leukemia
[15] = test system: HOP-62 NSCLC
[16] = test system: HOP-92 NSCLC
[17] = test system: HS 578T breast
[18] = test system: HT29 colon
[19] = test system: IGROV1 ovarian
[20] = test system: K-562 leukemia
[21] = test system: KM12 colon
[22] = test system: LOX IMVI melanoma
[23] = test system: M14 melanoma
[24] = test system: MALME-3M melanoma
[25] = test system: MCF7 breast
[26] = test system: MDA-MB-231 breast
[27] = test system: MDA-MB-435
[28] = test system: NCI-H226 lung
[29] = test system: NCI-H23 lung
[30] = test system: NCI-H460 lung
[31] = test system: NCI-H522 lung
[32] = test system: NCI/ADR-RES ovarian
[33] = test system: OVCAR-3 ovarian
[34] = test system: OVCAR-4 ovarian
[35] = test system: OVCAR-5 ovarian
[36] = test system: OVCAR-8 ovarian
[37] = test system: PC-3 prostate
[38] = test system: RPMI-8226 leukemia
[39] = test system: RXF 393 renal
[40] = test system: SF-268 CNS
[41] = test system: SF-295 CNS
[42] = test system: SF-539 CNS
[43] = test system: SK-MEL-2 melanoma
[44] = test system: SK-MEL-28 melanoma
[45] = test system: SK-MEL-5 melanoma
[46] = test system: SK-OV-3 ovarian
[47] = test system: SN12C renal
[48] = test system: SNB-19 CNS
[49] = test system: SNB-75 CNS
[50] = test system: SR leukemia
[51] = test system: SW-620 colon
[52] = test system: T-47D breast
[53] = test system: TK-10 renal
[54] = test system: U251 CNS
[55] = test system: UACC-257 melanoma
[56] = test system: UACC-62 melanoma
[57] = test system: UO-31 renal
[58] = test system: MOLT-4 leukemia

O=C(CSCC(=O)N/N=C/c1ccccc1O)N/N=C\c1ccccc1O
6.59 µM: TGI [1]
7.13 µM: TGI [56]
> 100 µM: TGI [2] | TGI [3] | TGI [7] | TGI [8] | TGI [9] | TGI [10] | TGI [12] | TGI [13] | TGI [15] | TGI [16] | TGI [17] | TGI [18] | TGI [19] | TGI [20] | TGI [21] | TGI [22] | TGI [25] | TGI [26] | TGI [27] | TGI [28] | TGI [29] | TGI [30] | TGI [31] | TGI [32] | TGI [33] | TGI [34] | TGI [35] | TGI [36] | TGI [37] | TGI [38] | TGI [39] | TGI [40] | TGI [41] | TGI [43] | TGI [44] | TGI [45] | TGI [46] | TGI [47] | TGI [48] | TGI [49] | TGI [50] | TGI [51] | TGI [52] | TGI [53] | TGI [54]
inactive: GI50 [1] 1.95 µM | GI50 [2] 14.3 µM | GI50 [3] 3.2 µM | GI50 [4] 0.877 µM | GI50 [5] 1.73 µM | GI50 [6] 0.627 µM | GI50 [7] 0.433 µM | GI50 [8] 2.19 µM | GI50 [9] 1.92 µM | GI50 [10] 2.44 µM | GI50 [11] 1.61 µM | GI50 [12] 1.06 µM | GI50 [13] 0.52 µM | GI50 [14] 1.49 µM | GI50 [15] 1.31 µM | GI50 [16] 1.73 µM | GI50 [17] 26.7 µM | GI50 [18] 5.64 µM | GI50 [19] 1.91 µM | GI50 [20] 2.39 µM | GI50 [21] 2.42 µM | GI50 [22] 0.748 µM | GI50 [23] 1.51 µM | GI50 [24] 2.29 µM | GI50 [25] 5.85 µM | GI50 [26] 4.16 µM | GI50 [27] 3.44 µM | GI50 [28] 3.43 µM | GI50 [29] 3.33 µM | GI50 [30] 2.27 µM | GI50 [31] 3.61 µM | GI50 [32] 2.87 µM | GI50 [33] 4.76 µM | GI50 [34] 1.72 µM | GI50 [35] 5.11 µM | GI50 [36] 1.92 µM | GI50 [37] 3.06 µM | GI50 [38] 3.49 µM | GI50 [39] 2.46 µM | GI50 [40] 1.2 µM | GI50 [41] 1.78 µM | GI50 [42] 2.1 µM | GI50 [43] 5.35 µM | GI50 [44] 8.05 µM | GI50 [45] 1.86 µM | GI50 [46] 2.4 µM | GI50 [47] 2.46 µM | GI50 [48] 2.95 µM | GI50 [49] 67.7 µM | GI50 [50] 0.668 µM | GI50 [51] 3.25 µM | GI50 [52] 2.36 µM | GI50 [53] 1.83 µM | GI50 [54] 1.06 µM | GI50 [55] 3.09 µM | GI50 [56] 1.61 µM | GI50 [57] 1.06 µM
56.3 µM: TGI [5]
34.4 µM: TGI [11]
12.5 µM: TGI [23]
22.5 µM: TGI [55]
9.82 µM: TGI [6]
25 µM: TGI [4]
25.2 µM: TGI [24]
23 µM: TGI [42]
5.11 µM: TGI [14]
37.3 µM: TGI [57]

O=C1/C=C/[C@@H](O)[C@@H]2C[C@@H](O)C[C@H]2/C=C/CCC[C@H](CCc2ccc3ncccc3c2)O1
0.678 µM: TGI [24]
4.99 µM: TGI [11]
0.419 µM: TGI [39]
> 36 µM: TGI [37]
0.691 µM: TGI [14]
active: GI50 [1] 0.218 µM | GI50 [2] 0.1 µM | GI50 [3] 0.308 µM | GI50 [4] 0.388 µM | GI50 [5] 0.402 µM | GI50 [6] 0.282 µM | GI50 [7] 0.306 µM | GI50 [8] 0.19 µM | GI50 [10] 0.289 µM | GI50 [11] 0.252 µM | GI50 [12] 0.245 µM | GI50 [13] 0.337 µM | GI50 [14] 0.268 µM | GI50 [15] 0.317 µM | GI50 [18] 0.0905 µM | GI50 [19] 0.394 µM | GI50 [20] 0.386 µM | GI50 [21] 0.175 µM | GI50 [22] 0.152 µM | GI50 [23] 0.327 µM | GI50 [24] 0.208 µM | GI50 [25] 0.27 µM | GI50 [26] 0.167 µM | GI50 [27] 0.318 µM | GI50 [58] 0.289 µM | GI50 [29] 0.219 µM | GI50 [30] 0.36 µM | GI50 [31] 0.212 µM | GI50 [32] 0.396 µM | GI50 [34] 0.253 µM | GI50 [35] 0.42 µM | GI50 [36] 0.275 µM | GI50 [37] 0.313 µM | GI50 [38] 0.243 µM | GI50 [39] 0.0945 µM | GI50 [40] 0.322 µM | GI50 [41] 0.351 µM | GI50 [43] 0.266 µM | GI50 [44] 0.0637 µM | GI50 [45] 0.0567 µM | GI50 [46] 0.336 µM | GI50 [47] 0.334 µM | GI50 [48] 0.4 µM | GI50 [49] 0.101 µM | GI50 [50] 0.296 µM | GI50 [51] 0.265 µM | GI50 [52] 0.312 µM | GI50 [53] 0.265 µM | GI50 [54] 0.347 µM | GI50 [55] 0.13 µM | GI50 [56] 0.303 µM | GI50 [57] 0.299 µM
> 100 µM: TGI [9] | TGI [16] | TGI [17] | TGI [20] | TGI [25] | TGI [33] | TGI [35] | TGI [40] | TGI [41] | TGI [42] | TGI [47] | TGI [48] | TGI [54]
0.343 µM: TGI [8]
> 57.9 µM: TGI [3]
18.3 µM: TGI [23]
14.5 µM: TGI [13]
> 29.7 µM: TGI [4]
0.162 µM: TGI [45]
0.373 µM: TGI [26]
1.54 µM: TGI [58]
> 64.9 µM: TGI [10]
> 29.8 µM: TGI [49]
0.555 µM: TGI [18]
> 46.8 µM: TGI [30]
8.44 µM: TGI [56]
9.05 µM: TGI [32]
> 47 µM: TGI [36]
0.654 µM: TGI [43]
0.768 µM: TGI [51]
> 34 µM: TGI [19]
6.5 µM: TGI [50]
0.333 µM: TGI [22]
1.18 µM: TGI [29]
0.693 µM: TGI [12]
0.821 µM: TGI [53]
0.837 µM: TGI [44]
5.89 µM: TGI [38]
0.504 µM: TGI [1]
inactive: GI50 [9] 0.564 µM | GI50 [16] 2.77 µM | GI50 [17] 1.23 µM | GI50 [33] 0.518 µM | GI50 [42] 0.495 µM
> 32.1 µM: TGI [46]
16.2 µM: TGI [5]
8.4 µM: TGI [7]
5.95 µM: TGI [55]
20 µM: TGI [57]
8.1 µM: TGI [52]
0.523 µM: TGI [31]
13.3 µM: TGI [27]
